From patent publication US20250346633A1, “MACOLACINS AND METHODS OF USE THEREOF” (priority 2021, published 2025)
≈ marks a conversion by molar mass, not a printed value. Where two headings read alike, the source gives them in different places. Bridge positions count the residues as written; N and C are the ends. Square brackets hold non-standard residues; d marks the D form. Peptide text beside a SMILES is read from it. * marks the point of attachment. Benzoyl(4-Ph) = O=C(c1ccc(-c2ccccc2)cc1)*; X1 = CC[C@H](C)CCCCC(=O)*; Dab = NCC[C@H](N)C(=O)O

What was measured:
K. pneumoniae 10031 = conditions: colistin S, n=2
[1] = tested on: E. cloacae ATCC13047 (ΔphoP/Q)
Experimental: (§1) MIC assays were conducted following the protocol recommended by the Clinical and Laboratory Standards Institute (Testing E C et al., 2016, EUCAST: Växjö; Wikler M A et al., 2006, CLSI (NCCLS), 26: M7-A7). […] Polymyxin B sulfate (Sigma, USA) and colistin sulfate (Sigma, USA) were used as positive controls. […] The top and bottom rows of each plate were filled with 100 μL of LB broth without compound to avoid edge effects. The last well in each row was treated as a negative control. It contained bacteria but no test compounds. A single colony of each assayed bacterial strain was inoculated into 5 mL of LB broth medium and grown overnight at 37° C. […] Saturated overnight cultures were diluted 5,000-fold in fresh LB, and then 50 μL was transferred into individual wells of a 96-well plate.

[2] = tested on: E. cloacae ATCC13047 (ΔphoP/Q + phoP/Q); conditions: colistin R
Experimental: as §1

P. aeruginosa PA01 = conditions: colistin S, n=2
[3] = tested on: A. baumannii 0301 with mcr-1; conditions: colistin R
[4] = tested on: K. pneumoniae ATCC13883 (pMQ124-mcr-1)
A. baumannii 0282 = conditions: mcr-1 −, colistin S
S. aureus SH1000 = conditions: colistin R, n=2
[5] = tested on: K. pneumoniae and A. baumannii; assay: MIC upon addition of cell wall components (lipid A, LPS) to the media; assay type: cell-based, Klebsiella pneumoniae; Acinetobacter baumannii; conditions: FIG. 3C; n=2
A. baumannii SM1536 = conditions: colistin S
[6] = Pharmacokinetics assessment; conditions: mice; single subcutaneous dose of 10 mg/kg; FIG. 9
Experimental: (§2) Six-week old CD-1 female mice (20-25 g) were used in pharmacokinetic studies. […] Aliquots of 20 μL of blood were taken by puncture of the lateral tail vein from each mouse (n=2 per route and dose) at 30 minutes, 1, 3, and 5 hours post-dose and captured in CB300 blood collection tubes containing K2EDTA and stored on ice. Plasma was recovered after centrifugation and stored at −80° C. until analyzed by high pressure liquid chromatography coupled to tandem mass spectrometry. […] Standards and QCs were created by adding 10 μL of spiking solutions to 90 μL of drug free plasma (CD-1 K2EDTA Mouse, Bioreclamation IVT). 10 μL of control, standard, QC, or study samples were added to 10 μL of internal standard. […] The compounds were extracted by adding 100 μL of 50% Methanol/50% (10% Trichloroacetic acid in water) precipitation solvent. Extracts were vortexed for 5 minutes and centrifuged at 4,000 rpm for 5 minutes. 75 μL of supernatant was transferred for HPLC-MS/MS analysis and diluted with 75 μL of Milli-Q deionized water. LC-MS/MS analysis was performed on a Sciex Applied Biosystems Qtrap 6500+triple-quadrupole mass spectrometer coupled to a Shimadzu Nexera×2 UHPLC system to quantify each drug in plasma. […] Multiple-reaction monitoring of parent/daughter transitions in electrospray positive-ionization mode was used to quantify the analytes. […]

[7] = tested on: A. baumannii-0301-(mcr-1); assay: Neutropenic thigh infection model; assay type: in vivo, Acinetobacter baumannii; conditions: neutropenic mouse thigh, 20 mg/kg SC at 6 hour intervals, 24 h
Experimental: (§3) After 24 hours the bacterial burden in each infected thigh was determined based on colony forming units (CFUs) that arose from homogenized tissue samples.
(§4) Six-week old female outbred Swiss Webster mice (20-25 g) were used for this experiment. Mice were housed in individually ventilated cages (IVC) and maintained in accordance with American Association for Accreditation of Laboratory Care criteria. Acinetobacter baumannii SM1536-(mcr-1) or A. baumannii-0301-(mcr-1) was grown in cation adjusted Mueller Hinton (MH) broth containing 50 μg/mL of gentamycin at 37° C. with shaking overnight. The cultures were centrifuged, supernatant aspirated and the bacteria were gently washed twice in sterile saline. […] All mice were closely monitored post-infection for morbidity. Any abnormal clinical signs were recorded if observed. […] The treatment efficacy was determined both as the bacterial burden reduction in the thighs relative to the vehicle and colistin treated controls. All graphic data are expressed as columnar average data points by group and were statistically analyzed using computer Prism software (Prism 9). Burden differences between testing and control groups was assessed by post-hoc analysis, using the Mann-Whitney comparison test. […]

[8] = tested on: A. baumannii SM1536-(mcr-1); assay: Neutropenic thigh infection model; assay type: in vivo, Acinetobacter baumannii; conditions: neutropenic mouse thigh, 20 mg/kg SC at 6 hour intervals, 24 h
Experimental: as §3, §4

[9] = tested on: K. pneumoniae 0497 (mcr-1 clinical isolate); conditions: colistin R
A. baumannii ATCC17978 [10] = assay: CHIR-090 inhibition assay (growth curves); assay type: cell-based, Acinetobacter baumannii; conditions: for A. baumannii growth: antibiotic alone at concentrations above MIC; for A. baumannii growth / A. baumannii growth with CHIR-090 included: 48 hours; for A. baumannii growth with CHIR-090 included: antibiotic plus CHIR-090
[11] = tested on: A. baumannii 0295 with mcr-1; conditions: colistin R
[12] = tested on: A. baumannii SM1536 (pMQ124xlab1-mcr-1)
[13] = tested on: A. baumannii 0287 with mcr-1; conditions: colistin R
[14] = tested on: A. baumannii ATCC17978 (pMQ124xlab1-mcr-1)
MTT cytotoxicity assay = assay type: cell-based; conditions: HEK293, human cells
Experimental: Compounds with different concentrations were then added into each well. After 48 h of incubation, the media was removed and MTT solution (0.45 mg/mL) was added into each well. After 3 h of incubation, the solution was aspirated. […] The absorbance of each well was measured at OD570nm using a microplate reader (Epoch Microplate Spectrophotometer, BioTek). Taxol was used as the positive control. […] All the experiments were performed triplicates (n=3).

A. baumannii 0287 = conditions: mcr-1 −, colistin S
A. baumannii 0295 = conditions: mcr-1 −, colistin S
A. baumannii 0286 = conditions: mcr-1 −, colistin S
A. baumannii 0296 = conditions: mcr-1 −, colistin S
E. faecium Com15 = conditions: colistin R, n=2
K. pneumoniae ATCC13883 = conditions: colistin S, mcr-1 engineered pair
[15] = tested on: S. typhimurium 0635 (mcr-1 clinical isolate); conditions: colistin R
E. cloacae 0150 = conditions: colistin S, n=2
A. baumannii ATCC17978 [16] = tested on: A. baumannii ATCC17978
[17] = mouse, in vivo, sc, 10 mg/kg
Experimental: as §2

[18] = tested on: CRAB, as well as a panel of XDR A. baumannii clinical isolates; conditions: CRAB and XDR A. baumannii clinical isolates, even when transformed with mcr-1
Experimental: MIC assays were conducted following the protocol recommended by the Clinical and Laboratory Standards Institute (Testing E C et al., 2016, EUCAST: Växjö; Wikler M A et al., 2006, CLSI (NCCLS), 26: M7-A7). […] Polymyxin B sulfate (Sigma, USA) and colistin sulfate (Sigma, USA) were used as positive controls. […] The top and bottom rows of each plate were filled with 100 μL of LB broth without compound to avoid edge effects. The last well in each row was treated as a negative control. It contained bacteria but no test compounds. A single colony of each assayed bacterial strain was inoculated into 5 mL of LB broth medium and grown overnight at 37° C. (200 rpm). For assays using bacteria containing mcr-1 expression plasmids, the appropriate selection antibiotic was added to keep the plasmid stable (concentrations are listed in Table 5). Saturated overnight cultures were diluted 5,000-fold in fresh LB, and then 50 μL was transferred into individual wells of a 96-well plate.

Gram−positive pathogens = assay: MIC against ESKAPE pathogens; assay type: cell-based; conditions: highest concentration tested 128 μg/mL
[19] = tested on: K. pneumoniae and A. baumannii transformed with a plasmid expressing mcr-1; assay type: cell-based, Klebsiella pneumoniae; Acinetobacter baumannii
[20] = A. baumannii SM1536 (pMQ124xlab1-mcr-1), colistin R
[21] = extremely highly colistin resistant A. baumannii
[22] = A. baumannii ATCC17978, colistin S, mcr-1 engineered pair

CC[C@H](C)CCCCC(=O)N[C@@H](CCN)C(=O)N[C@H](C(=O)N[C@@H](CCN)C(=O)N[C@H]1CCNC(=O)[C@H]([C@@H](C)O)NC(=O)[C@H](CCN)NC(=O)[C@H](CCN)NC(=O)[C@H](CC(C)C)NC(=O)[C@@H](CC(C)C)NC(=O)[C@H](CCN)NC1=O)[C@@H](C)O [Colistin, colistin] (X1-[Dab]T[Dab][Dab][Dab][dL]L[Dab][Dab]T; lactam 4-C)
MIC (K. pneumoniae 10031): 0.5 µg/mL (≈ 0.428 µM)
MIC [1]: 1 µg/mL (≈ 0.855 µM)
MIC [2]: 32 µg/mL (≈ 27.4 µM)
MIC ([2]; listed as colistin): resistant
MIC (P. aeruginosa PA01): 1 µg/mL (≈ 0.855 µM)
Antibiotic MIC [3]: >128 µg/mL
Antibiotic MIC ([3]; listed as colistin): > 64 µg/mL
MIC ([4]; ATCC13883): 64 µg/mL (≈ 54.7 µM)
Antibiotic MIC (A. baumannii 0282): 0.5 µg/mL
MIC (S. aureus SH1000): >128 µg/mL
change of MIC on addition of lipid A or lipopolysaccharide (LPS) to the assay media [5]: significant increase
MIC (A. baumannii SM1536): 0.5 µg/mL (≈ 0.428 µM)
plasma drug exposure (pharmacokinetic profile) [6]: parity in plasma drug exposure
bacterial burden in infected thighs [7]: did not reduce the bacterial burden below the level of the initial infection
bacterial burden in infected thighs [8]: did not reduce the bacterial burden below the level of the initial infection
MIC [9]: 32 µg/mL (≈ 27.4 µM)
A. baumannii growth (A. baumannii ATCC17978 [10]): completely abrogated A. baumannii growth
A. baumannii growth with CHIR-090 included (A. baumannii ATCC17978 [10]): rescued A. baumannii growth
Antibiotic MIC [11]: >128 µg/mL
MIC [12, 20]: 128 µg/mL (≈ 109 µM)
MIC [12, 21]: > 128 µg/mL
Antibiotic MIC [13]: 64 µg/mL
MIC ([14]; ATCC17978): 32 µg/mL (≈ 27.4 µM)
Antibiotic MIC (A. baumannii 0301; A. baumannii 0301, mcr-1 −, colistin S): 0.25 µg/mL
IC50 at 48 h (MTT cytotoxicity assay): > 512 µg/mL
Antibiotic MIC (A. baumannii 0287): 0.5 µg/mL
Antibiotic MIC (A. baumannii 0295): 0.25 µg/mL
Antibiotic MIC (A. baumannii 0286): 1 µg/mL
Antibiotic MIC (A. baumannii 0296): 0.25 µg/mL
MIC (E. faecium Com15): >128 µg/mL
MIC (K. pneumoniae ATCC13883): 1 µg/mL (≈ 0.855 µM)
MIC [15]: 16 µg/mL (≈ 13.7 µM)
MIC (E. cloacae 0150): 1 µg/mL (≈ 0.855 µM)
MIC (A. baumannii ATCC17978 [16]; [22]): 1 µg/mL (≈ 0.855 µM)

C[C@@H](O)[C@H](NC(=O)c1ccc(C#Cc2ccc(CN3CCOCC3)cc2)cc1)C(=O)NO [CHIR-090]
A. baumannii growth, CHIR-090 alone (A. baumannii ATCC17978 [10]; CHIR-090 alone): did not inhibit A. baumannii growth

CC[C@H](C)[C@@H]1NC(=O)[C@@H](CC(C)C)NC(=O)[C@H](CCN)NC(=O)[C@@H](NC(=O)[C@@H](CO)NC(=O)[C@@H](NC(=O)[C@H](CCN)NC(=O)c2ccc(-c3ccccc3)cc2)[C@@H](C)O)CCNC(=O)[C@H](CC(C)C)NC(=O)[C@H](CCN)NC(=O)[C@H](CCN)NC1=O [Biphenyl-macolacin] ({Benzoyl(4-Ph)}-[Dab]T[dS][Dab][Dab][dL]I[Dab][Dab]L; lactam 4-C)
Antibiotic MIC [3]: 1 µg/mL
Antibiotic MIC ([3]; listed as biphenyl-macolacin): < 2 µg/mL
plasma drug exposure (pharmacokinetic profile) [17]: parity in plasma drug exposure
Antibiotic MIC (A. baumannii 0301; 0301): 0.5 µg/mL
MIC (Proteus vulgaris): 4 µg/mL (≈ 3.31 µM)
MICs [18]: < 2 µg/mL

Polymyxin B
MIC (K. pneumoniae 10031): 1 µg/mL
MIC [1]: 1 µg/mL
MIC [2]: 32 µg/mL
MIC ([2]; listed as polymyxin B): resistant
MIC (P. aeruginosa PA01): 2 µg/mL
MIC [4]: 128 µg/mL
MIC (S. aureus SH1000): >128 µg/mL
MIC (A. baumannii SM1536): 1 µg/mL
MIC [9]: 32 µg/mL
MIC [12, 20]: 128 µg/mL
MIC [14]: 16 µg/mL
MIC (E. faecium Com15): >128 µg/mL
MIC (K. pneumoniae ATCC13883): 1 µg/mL
MIC [15]: 16 µg/mL
MIC (E. cloacae 0150): 1 µg/mL
MIC (A. baumannii ATCC17978 [16]): 0.5 µg/mL
MIC (A. baumannii ATCC17978 [16]; [22]): 0.5 µg/mL

CC[C@H](C)CCCCC(=O)N[C@@H](CCN)C(=O)N[C@H](C(=O)N[C@H](CO)C(=O)N[C@H]1CCNC(=O)[C@H](CC(C)C)NC(=O)[C@H](CCN)NC(=O)[C@H](CCN)NC(=O)[C@H]([C@@H](C)CC)NC(=O)[C@@H](CC(C)C)NC(=O)[C@H](CCN)NC1=O)[C@@H](C)O [Macolacin] (X1-[Dab]T[dS][Dab][Dab][dL]I[Dab][Dab]L; lactam 4-C)
activity against Gram−positive pathogens (Gram−positive pathogens): no activity
MIC [2]: 2 µg/mL (≈ 1.71 µM)
change of MIC on addition of lipid A or lipopolysaccharide (LPS) to the assay media [5]: significant increase
increase in MIC upon mcr-1 expression [19]: 2- to 4 fold
A. baumannii growth (A. baumannii ATCC17978 [10]): completely abrogated A. baumannii growth
A. baumannii growth with CHIR-090 included (A. baumannii ATCC17978 [10]): rescued A. baumannii growth
MIC [12, 21]: 8 µg/mL (≈ 6.85 µM)
MIC [14]: 2 µg/mL (≈ 1.71 µM)
Antibiotic MIC (A. baumannii 0301; 0301): 0.5 µg/mL
